One series concerns SHRs. It is filed as in vivo, rat (SHR). The protocol: Each rat cage was placed on a receiver (RLA 1020, Data Sciences, St. Paul, Minn.) for measurement of cardiovascular parameters. Data were collected with a computer-based data acquisition program (Dataquest Lab-PRO3.0; Data Sciences). BP and HR were measured every 10 min. and averaged every 1 to 24 hrs. Before treatment, SHRs were monitored for a week to get a stable baseline.
Each rat cage was placed on a receiver (RLA1020, Data Sciences) for measurement of cardiovascular parameters. Data were collected with a computer-based data acquisition program (Dataquest LabPRO3.0; Data Sciences). BP and HR were measured every 10 min and averaged every 1 to 24 hr. Before treatment, SHR were monitored for a week to get a stable baseline.

Another series deals with PRA. The protocol:
PRA was determined with an angiotensin I (^125I) radioimmunoassay kit (DuPont). Plasma Ang II levels were measured by radioimmunoassay as previously described (Phillips and Kimura, 1988).

The next series concerns β1-AR. In words: Quantitative autoradiography of brain, heart and kidney sections. It is filed as in vivo, rat (SHR). The protocol:
(§1) Four days after injection of 1 mg/kg β1-AS-ODN (n=6) or saline (n=6), rats were killed, and tissues were removed and frozen in dry ice. Coronal sections of brain, horizontal sections of heart, and sagittal sections of kidney (20 μm) were cut on a cryostat (Microm, Thornwood, N.Y.) at ^−20° C. and mounted on microscope slides. Every seventh slide was stained with hematoxylin and eosin for histology. Tissue sections were preincubated in Krebs buffer (mmol/L: NaCl 118.4, KCl 4.7, MgSO4 1.2, CaCl2 1.27 and NaH2PO4 10.0, pH 7.1) containing 0.1 mmol/L GTP, 0.1 mmol/L ascorbic acid, and 10 μmol/L PMSF for 30 minutes at 25° C. Sections were then incubated in Krebs buffer containing 0.1 mmol/L ascorbic acid and 10 μmol/L PMSF with 100 pmol/L ICYP at 25° C. for 150 minutes in the presence of 1 μmol/L (^−) propranolol, 100 nmol/L ICI 118,551 ([…]), or 100 nmol/L CGP20712A (β1-selective antagonist) to distinguish nonspecific, β1−, and β2-bindings. Labeled sections were rinsed in the same buffer, followed by two 15-min. washes at 37° C. in the buffer, and rinsed in distilled water at 25° C. (Matthews et al., 1994). Dried sections were then exposed to x-ray films. The images were quantified with a computerized image analysis system (MCID, Imaging Research) and normalized with ^125I standards.
(§2) Four days after injection of 0.5 mg/kg β1-AS-ODN (n=6) or saline (n=6), rats were euthanized, and the right kidneys were removed and frozen in dry ice. Sagittal sections of kidney (20 μm) were cut on a cryostat (Microm) at −20° C. and mounted on microscope slides. Every seventh slide was stained with hematoxylin and eosin for histology. Receptor autoradiography was performed as described (Matthews et al., 1994) with 100 pmol/L ICYP at 25° C. for 150 min. in the presence of 1 μmol/L (−)-propranolol, […] ICI 118,551 (β2-selective antagonist), or 100 nmol/L CGP 20712A (β1-selective antagonist) to distinguish nonspecific, β1, and β2-bindings. The images were quantified with a computerized image analysis system (MCID, Imaging Research) and normalized with ^125I standards.
(§3) Four days after injection of 1 mg/kg β1-AS-ODN (n=6) or saline (n=6), rats were sacrificed and tissues were removed and frozen in dry ice. Coronal sections of brain, horizontal sections of heart and sagittal sections of kidney (20 μm) were cut on a cryostat (Microm) at −20° C. and mounted on microscope slides. Every seventh slide was stained with haematoxylin and eosin for histology. Tissue sections were preincubated in Krebs buffer (NaCl 118.4 mM, KCl 4.7 mM, MgSO4 1.2 mM, CaCl2 1.27 mM, NaH2PO4 10.0 mM, pH 7.1) containing 0.1 mM guanosine triphosphate (GTP), 0.1 mM ascorbic acid and 10 μM phenylmethylsulfonylfluoride (PMSF) for 30 min at 25° C. Sections were then incubated in Krebs buffer containing 0.1 mM ascorbic acid and 10 μM PMSF with 100 pM I-CYP at 25° C. for 150 min, in the presence of 1 μM (−)propranolol, 100 nM IC1118,551 (β2-selective antagonist) or 100 nM CGP20712A (β1-selective antagonist) to distinguish non-specific, β1- and β2-bindings. Labeled sections were rinsed in the same buffer, followed by two 15-min washes at 37° C. in the buffer and rinsed in distilled water at 25° C. (Matthews et al., 1994). Dried sections were then exposed to X-ray films (Kodak Biomax-MR). The images were quantitated with a computerized image analysis system (MCID, Imaging Research) and normalized using ^125I-standards.

Another series deals with β2-ARs. Described as above. It is filed as in vivo, rat (SHR). The protocol:
as §1, §2, §3

Series [1] in a line: Tissue histology after repeated injections. In kind it is in vivo, rat (SHR). To be noted: three repeated injections, more than 2 months. The text has this:
Safety profiles including liver transaminases, hematology, immune response and tissue pathology were investigated during three repeated injections of β1-AS-ODNs for extended periods of time.
Heart, liver, spleen and kidney were subjected to pathological examination after three repeated injections of β1-AS-ODN for more than 2 months.

Setting [2] is: 4 days after i.v. administration.

Data on one substance can be found in patent US6489307B1, “Antisense compositions targeted to β1-adrenoceptor-specific mRNA and methods of use” (University of Florida, priority 1998, dated 2002).

Like-named read-outs stand apart in the source and are kept apart here.

In the case of “5′-CCGCGCCCATGCCGA-3′ (phosphorothioate backbone, further chemistry not given here) [β1-AS-ODN, 15-mer antisense ODN targeted to the AUG start codon of rat β1-AR mRNA]”, the “duration of antihypertensive effect” value in the series on SHRs (1 mg/kg, liposomes 1:0.5) is 8 days. Moreover, the “maximum drop in mean BP” value in the series with SHRs (1 mg/kg, liposomes 1:0.5) was found to be 15 mm Hg. Further, in the series with SHRs (rat, in vivo), the reflex tachycardia entry is listed as “no reflex tachycardia”. Further, the PRA result in the series on PRA (day 4) is recorded as “not on day 4”; in the series with PRA (day 10 and day 18), “significantly decreased”. Further, in the series with PRA (single injection), the “time after injection until decrease in PRA and Ang II occurred” value was “≈ 10 days”. The “overall density of β1-subtype in kidney” value in the series with β1-AR (4 days after 0.5 mg/kg, from 23.5±2.1) was determined as 15.4 ± 3.3 fmol/mg. Also, the “β1-AR density in renal cortex” value with β1-AR (4 days after i.v. 1 mg/kg, from 26.4±3.1) was 17.4 ± 3.3 fmol/mg. Further, in the series on β1-AR (4 days after i.v. 1 mg/kg, from 30.2±2.1), the “β1-AR density in cardiac ventricles” value is 20.6 ± 2.5 fmol/mg. Also, the “distribution of β-ARs in forebrain and brain stem regions” value in the series with β1-AR (setting [2]) is “no detectable changes”. Moreover, the “distribution and concentration of β2-subtype in kidney” value with β2-ARs (4 days after 0.5 mg/kg) is on record as “remained unchanged”. The “β2-ARs in any tissues” value in the series on β2-ARs (setting [2]) is reported as “not affected”. Also, in series [1], the “pathological examination of heart, liver, spleen and kidney” value is listed as “No immunopathology or organ damage”.
